PubChem BioAssay (NCI)
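All cell lines were grown in 96-well plates and treated with compound for 48 hours. GI50: concentration for 50% inhibition of growth. TGI denotes the concentration required for complete inhibition of growth.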

Legend:
Assay in all cases: DTP human tumour cell line panel, 48 h
UACC-62 melanoma = system: UACC-62 melanoma
OVCAR-5 ovarian = system: OVCAR-5 ovarian
A549 NSCLC = system: A549 NSCLC
SK-OV-3 ovarian = system: SK-OV-3 ovarian
KM12 colon = system: KM12 colon
SW-620 colon = system: SW-620 colon
MALME-3M melanoma = system: MALME-3M melanoma
HOP-62 NSCLC = system: HOP-62 NSCLC
IGROV1 ovarian = system: IGROV1 ovarian
ACHN renal = system: ACHN renal

| SMILES | GI50 (UACC-62 melanoma) [µM] | TGI (UACC-62 melanoma) [µM] | GI50 (OVCAR-5 ovarian) [µM] | TGI (OVCAR-5 ovarian) [µM] | GI50 (A549 NSCLC) [µM] | TGI (A549 NSCLC) [µM] | GI50 (SK-OV-3 ovarian) [µM] | TGI (SK-OV-3 ovarian) [µM] | GI50 (KM12 colon) [µM] | TGI (KM12 colon) [µM] | GI50 (SW-620 colon) [µM] | TGI (SW-620 colon) [µM] | GI50 (MALME-3M melanoma) [µM] | TGI (MALME-3M melanoma) [µM] | GI50 (HOP-62 NSCLC) [µM] | TGI (HOP-62 NSCLC) [µM] | GI50 (IGROV1 ovarian) [µM] | TGI (IGROV1 ovarian) [µM] | GI50 (ACHN renal) [µM] | TGI (ACHN renal) [µM] |
| --- | --- | --- | --- | --- | --- | --- | --- | --- | --- | --- | --- | --- | --- | --- | --- | --- | --- | --- | --- | --- |
| O=C1C(=O)c2c(nc3ccc(C(F)(F)F)cn23)-c2ccccc21 | 0.179 | 0.343 | 0.414 | 0.998 | 0.513 | 1.23 | 0.551 | 1.12 | 0.288 | 0.995 | 0.192 | 0.397 | 0.158 | 0.295 | 0.169 | 0.339 | 0.191 | 0.47 | 0.185 | 0.381 |
| C1=CC(=P(c2ccccc2)(c2ccccc2)c2ccccc2)C=C1 | – | 20 | – | 28.6 | – | 79.7 | – | 35.3 | – | 24.4 | – | 56 | – | 17.4 | – | 41.6 | – | 24.6 | – | 28.2 |
| CC(C)Cc1cnc(CC(C)C)c(=O)[nH]1 | – | > 100 | – | > 100 | – | > 100 | – | > 100 | – | > 100 | – | > 100 | – | – | – | > 100 | – | > 100 | – | > 100 |
| N#Cc1nc(CCc2nc(C#N)c(N)o2)oc1N | – | > 10 | – | > 10 | – | > 10 | – | > 10 | – | > 10 | – | > 10 | – | > 10 | – | > 10 | – | > 10 | – | > 10 |
| CN1CCCC2[C@@H]3CCC4c5nonc5CC[C@]4(C)C3CC[C@@]21C (stereo partly drawn) | – | > 100 | – | > 100 | – | > 100 | – | > 100 | – | > 100 | – | > 100 | – | > 100 | – | – | – | > 100 | – | > 100 |
| Cn1c(I)c(C#C[Si](C)(C)C)c(=O)n(C(=O)c2ccccc2)c1=O | 4.51 | 17 | 14.3 | 28.5 | 5.63 | 24.8 | 0.529 | 21.7 | 12.1 | 27.8 | 2.01 | 4.27 | 2.72 | 6.63 | 11.7 | 25.8 | 1.74 | 3.45 | 2.9 | 7.83 |
| N=C1CCCC1C(=S)SCCC(N)=O (stereo not drawn) | – | > 100 | – | > 100 | – | > 100 | – | > 100 | – | > 100 | – | > 100 | – | > 100 | – | > 100 | – | > 100 | – | > 100 |
| COc1ccc(-c2nc3ccccc3s2)cc1OC | – | > 100 | – | > 100 | – | > 100 | – | 62.9 | – | > 100 | – | > 100 | – | – | – | > 100 | – | – | – | > 100 |
| COC1=CC(c2ccc[nH]2)=N/C1=C\c1[nH]c(C)c(C(=O)CCCCCCCCC(=O)O[C@H]2CC[C@H]3C4CCc5cc(O)ccc5C4CC[C@]23C)c1C (stereo partly drawn) | 0.182 | 1.09 | 1.24 | > 50 | 1.11 | 8.88 | 5.02 | > 50 | 0.379 | > 50 | 0.197 | > 50 | 2.49 | > 36.3 | 0.483 | 10.2 | 1.06 | > 50 | 1.16 | > 50 |
| CCN(CC)C(=S)SSC(C)C | 16.7 | 35.4 | 18.3 | 32.6 | 31.2 | > 100 | 30.3 | 95.7 | – | – | 3.01 | 14 | 13.7 | 30 | 24.7 | 86.7 | – | – | 17.2 | 33.3 |
| CC(=O)N1[C@H](C(=O)O)CS[C@H]1c1ccc(F)cc1 | – | – | – | > 100 | – | > 100 | – | – | – | – | – | > 100 | – | > 100 | – | > 100 | – | > 100 | – | > 100 |
| Cc1cccc(N2C(=O)/C(=C/C(Cl)=C/c3ccc([N+](=O)[O-])cc3)SC2=S)c1C | 1.7 | 3.86 | 2.43 | 5.67 | 1.66 | > 100 | 4.93 | > 100 | – | – | 1.95 | 4.77 | – | – | 2.69 | 9.02 | – | – | 1.43 | 2.75 |
| CC(C)(C)C#COC(=O)c1ccccc1 | – | > 100 | – | > 100 | – | > 100 | – | > 100 | – | > 100 | – | > 100 | – | > 100 | – | > 100 | – | > 100 | – | > 100 |
| Nc1cc2c3c(cccc3c1)C(=O)N(CCN1CCCC1)C2=O | 2.47 | 9.99 | 4.73 | > 57.6 | 1.79 | > 100 | 2.16 | 22.7 | 3.66 | 51.2 | 2.39 | > 53.8 | 2.49 | 7.68 | 2.58 | 25.5 | 1.33 | > 100 | – | – |
| COC(=O)C(C(=O)C(=O)Nc1c(C)cccc1C(C)(C)C)c1nc2ccc(Cl)cc2[nH]c1=O (stereo not drawn) | – | > 100 | – | > 100 | – | > 100 | – | > 100 | – | > 100 | – | > 100 | – | > 100 | – | > 100 | – | > 100 | – | > 100 |
| N/N=C(/Cc1ccccc1)NNO | – | > 100 | – | > 100 | – | > 100 | – | – | – | 34.9 | – | > 100 | – | > 100 | – | – | – | > 100 | – | > 100 |
| O=C(Nc1ccc(Cl)cc1C(F)(F)F)C(=O)Nn1c(=S)[nH]c2ccccc2c1=O | – | > 100 | – | > 100 | – | > 100 | – | > 100 | – | > 100 | – | > 100 | – | – | – | > 100 | – | – | – | > 100 |
| Cc1ccc(C2=CC(=O)c3ccccc3C2=O)n1-c1ccccc1 | – | > 100 | – | – | – | > 100 | – | > 100 | – | > 100 | – | > 100 | – | – | – | > 100 | – | > 100 | – | – |
| NCCO/C=C/C(N)C(=O)O (stereo not drawn) | – | > 100 | – | > 100 | – | > 100 | – | > 100 | – | > 100 | – | > 100 | – | – | – | > 100 | – | > 100 | – | > 100 |
